# Where “and” joins values, the source holds several entries; their conditions need not be identical. Equal values may be shown once. Records with an inconclusive call do not appear.
# Test system: BDF1 mice, M5076 sarcoma s.c., survival/tumor T/C
# Test: NCI In Vivo Anticancer Drug Screen. Data for tumor model Sarcoma M5076 (subcutaneous) in B6D2F1 (BDF1) mice
# Description: The antitumor activity of compounds was measured in mice bearing transplantable tumors. Survival or tumor size were measured and the results are expressed as the measurement made in the treated group (T) divided by the measurement made in the vehicle treated control group (C). The tumor model used in this assay is Sarcoma M5076 (subcutaneous) in B6D2F1 (BDF1) mice
# [1] = endpoint: median survival time, dose: 50.0 mg/kg/injection, schedule: Q04DX003 (ip), vehicle: saline with Tween-80, higher = longer survival
# [2] = endpoint: median survival time, dose: 100.0 mg/kg/injection, schedule: Q04DX003 (ip), vehicle: saline with Tween-80, higher = longer survival
# [3] = endpoint: median survival time, dose: 200.0 mg/kg/injection, schedule: Q04DX003 (ip), vehicle: saline with Tween-80, higher = longer survival
# [4] = endpoint: median survival time, dose: 50.0 mg/kg/injection, schedule: Q01DX009 (ip), vehicle: saline with Tween-80, higher = longer survival
# [5] = endpoint: median survival time, dose: 100.0 mg/kg/injection, schedule: Q01DX009 (ip), vehicle: saline with Tween-80, higher = longer survival
# [6] = endpoint: median survival time, dose: 200.0 mg/kg/injection, schedule: Q01DX009 (ip), vehicle: saline with Tween-80, higher = longer survival
# [7] = endpoint: median tumor weight (est.), dose: 50.0 mg/kg/injection, schedule: Q01DX009 (ip), vehicle: saline with Tween-80, higher = larger tumour
# [8] = endpoint: median tumor weight (est.), dose: 100.0 mg/kg/injection, schedule: Q01DX009 (ip), vehicle: saline with Tween-80, higher = larger tumour
# [9] = endpoint: median tumor weight (est.), dose: 200.0 mg/kg/injection, schedule: Q01DX009 (ip), vehicle: saline with Tween-80, higher = larger tumour
compound,measurement,setting,value
CC/C(=C(/CC)c1ccc(O)cc1)c1ccc(O)cc1,T/C,"endpoint: mean tumor weight, dose: 7.5 mg/kg/injection, schedule: Q02DX011 (ip), vehicle: Klucel (hydroxypropylcellulose) (HPC), higher = larger tumour",114 % of control
same,T/C,"endpoint: mean tumor weight, dose: 15.0 mg/kg/injection, schedule: Q02DX011 (ip), vehicle: Klucel (hydroxypropylcellulose) (HPC), higher = larger tumour",62 % of control and 87 % of control
same,T/C,"endpoint: mean tumor weight, dose: 60.0 mg/kg/injection, schedule: Q02DX011 (ip), vehicle: Klucel (hydroxypropylcellulose) (HPC), higher = larger tumour",55 % of control
same,T/C,"endpoint: median tumor weight (est.), dose: 15.0 mg/kg/injection, schedule: Q02DX011 (ip), vehicle: Klucel (hydroxypropylcellulose) (HPC), higher = larger tumour",88 % of control
same,T/C,"endpoint: median tumor weight (est.), dose: 30.0 mg/kg/injection, schedule: Q02DX011 (ip), vehicle: Klucel (hydroxypropylcellulose) (HPC), higher = larger tumour",66 % of control
same,T/C,"endpoint: median tumor weight (est.), dose: 60.0 mg/kg/injection, schedule: Q02DX011 (ip), vehicle: Klucel (hydroxypropylcellulose) (HPC), higher = larger tumour",28 % of control
Nc1nnc[se]1,T/C,[1],121 % of control
same,T/C,[2],116 % of control
same,T/C,[3],124 % of control
C1CN(P2(N3CC3)=NP(N3CC3)(N3CC3)=NP(N3CC3)(N3CC3)=N2)CCO1 (configuration not stated),T/C,"endpoint: median survival time, dose: 6.25 mg/kg/injection, schedule: Q02DX011 (ip), vehicle: saline, higher = longer survival",99 % of control
same,T/C,"endpoint: median survival time, dose: 12.5 mg/kg/injection, schedule: Q02DX011 (ip), vehicle: saline, higher = longer survival",105 % of control
same,T/C,"endpoint: median survival time, dose: 25.0 mg/kg/injection, schedule: Q02DX011 (ip), vehicle: saline, higher = longer survival",122 % of control
same,T/C,"endpoint: median survival time, dose: 50.0 mg/kg/injection, schedule: Q02DX011 (ip), vehicle: saline, higher = longer survival",89 % of control
CC(=O)[C@H]1CC[C@H]2[C@@H]3C[C@H](C)C4=CC(=O)CC[C@]4(C)[C@H]3C(=O)C[C@]12C,T/C,"endpoint: mean tumor weight, dose: 100.0 mg/kg/injection, schedule: Q02DX011 (ip), vehicle: Klucel (hydroxypropylcellulose) (HPC), higher = larger tumour",51 % of control
same,T/C,"endpoint: mean tumor weight, dose: 200.0 mg/kg/injection, schedule: Q02DX011 (ip), vehicle: Klucel (hydroxypropylcellulose) (HPC), higher = larger tumour",74 % of control
COc1cc(COC(=O)Nc2ccccc2F)cc(OC)c1OC,T/C,[4],100 % of control
same,T/C,[5],103 % of control
same,T/C,[6],94 % of control
same,T/C,[7],99 % of control
same,T/C,[8],111 % of control
same,T/C,[9],98 % of control
O=c1[nH]c(=O)n([C@H]2CCCO2)cc1F,T/C,"endpoint: mean tumor weight, dose: 50.0 mg/kg/injection, schedule: Q02DX011 (ip), vehicle: alkali diluted with saline, higher = larger tumour",150 % of control
same,T/C,"endpoint: mean tumor weight, dose: 100.0 mg/kg/injection, schedule: Q02DX011 (ip), vehicle: alkali diluted with saline, higher = larger tumour",93 % of control
same,T/C,"endpoint: mean tumor weight, dose: 200.0 mg/kg/injection, schedule: Q02DX011 (ip), vehicle: alkali diluted with saline, higher = larger tumour",74 % of control
CS(=O)(=O)c1ncc(Br)cn1,T/C,"endpoint: median survival time, dose: 25.0 mg/kg/injection, schedule: Q04DX003 (ip), vehicle: saline with Tween-80, higher = longer survival",100 % of control
same,T/C,[1],84 % of control
same,T/C,[2],99 % of control
same,T/C,[3],91 % of control
CCCCN1C(=O)/C(=C/c2ccccc2OC)SC1=S,T/C,[4],103 % of control
same,T/C,[5],107 % of control
same,T/C,[6],93 % of control
same,T/C,[7],98 % of control
same,T/C,[8],97 % of control
same,T/C,[9],107 % of control
Cc1ccc(SC(F)(F)C(F)C(F)(F)F)cc1 (configuration not stated),T/C,[4],98 % of control
same,T/C,[5],112 % of control
same,T/C,[6],100 % of control
Cn1c2c(c(=O)n(C)c1=O)CS(=O)c1ccccc1N2 (configuration not stated),T/C,[4],103 % of control
same,T/C,[5],106 % of control
same,T/C,[6],109 % of control
same,T/C,[7],65 % of control
same,T/C,[8],61 % of control
same,T/C,[9],83 % of control
COc1ccc(/C=N/OC(=S)NC2CCCCC2)cc1OC,T/C,[4],102 % of control
same,T/C,[5],86 % of control
same,T/C,[6],92 % of control
Nc1n[n+](-c2ccc(Cl)cc2)no1,T/C,"endpoint: median survival time, dose: 25.0 mg/kg/injection, schedule: Q04DX003 (ip), vehicle: water, higher = longer survival",99 % of control
same,T/C,"endpoint: median survival time, dose: 50.0 mg/kg/injection, schedule: Q04DX003 (ip), vehicle: water, higher = longer survival",100 % of control
Cc1ccc(S(=O)(=O)N/N=C/C(Br)=C(/Br)C(=O)O)cc1,T/C,"endpoint: median survival time, dose: 0.62 mg/kg/injection, schedule: Q04DX003 (ip), vehicle: saline, higher = longer survival",99 % of control
same,T/C,"endpoint: median survival time, dose: 1.25 mg/kg/injection, schedule: Q04DX003 (ip), vehicle: saline, higher = longer survival",101 % of control
same,T/C,"endpoint: median survival time, dose: 2.5 mg/kg/injection, schedule: Q04DX003 (ip), vehicle: saline, higher = longer survival",99 % of control and 96 % of control
same,T/C,"endpoint: median survival time, dose: 5.0 mg/kg/injection, schedule: Q04DX003 (ip), vehicle: saline, higher = longer survival",109 % of control and 92 % of control
same,T/C,"endpoint: median survival time, dose: 7.5 mg/kg/injection, schedule: Q04DX003 (ip), vehicle: saline, higher = longer survival",83 % of control
same,T/C,"endpoint: median survival time, dose: 11.3 mg/kg/injection, schedule: Q04DX003 (ip), vehicle: saline, higher = longer survival",88 % of control
COc1cc(/C=N/NC(=O)COCC(=O)N/N=C/c2ccc(O)cc2OC)ccc1O,T/C,[4],94 % of control
same,T/C,[5],86 % of control
same,T/C,[6],91 % of control
same,T/C,[7],116 % of control
same,T/C,[8],122 % of control
same,T/C,[9],122 % of control
O=C1N[C@H]2[C@H](O)[C@H](O)[C@@H](O)[C@H](O)[C@@H]2c2cc3c(c(O)c21)OCO3,T/C,"endpoint: median survival time, dose: 0.38 mg/kg/injection, schedule: Q01DX009 (ip), vehicle: saline + alcohol, higher = longer survival",101 % of control
same,T/C,"endpoint: median survival time, dose: 0.75 mg/kg/injection, schedule: Q01DX009 (ip), vehicle: saline + Tween-80 + alcohol, higher = longer survival",106 % of control
same,T/C,"endpoint: median survival time, dose: 0.75 mg/kg/injection, schedule: Q01DX009 (ip), vehicle: saline + alcohol, higher = longer survival",89 % of control
same,T/C,"endpoint: median survival time, dose: 1.5 mg/kg/injection, schedule: Q01DX009 (ip), vehicle: saline + Tween-80 + alcohol, higher = longer survival",111 % of control
same,T/C,"endpoint: median survival time, dose: 1.5 mg/kg/injection, schedule: Q01DX009 (ip), vehicle: saline + alcohol, higher = longer survival",94 % of control
same,T/C,"endpoint: median survival time, dose: 3.0 mg/kg/injection, schedule: Q01DX009 (ip), vehicle: saline + alcohol, higher = longer survival",120 % of control
same,T/C,"endpoint: median tumor weight (est.), dose: 0.38 mg/kg/injection, schedule: Q01DX009 (ip), vehicle: saline + alcohol, higher = larger tumour",103 % of control
same,T/C,"endpoint: median tumor weight (est.), dose: 0.75 mg/kg/injection, schedule: Q01DX009 (ip), vehicle: saline + Tween-80 + alcohol, higher = larger tumour",80 % of control
same,T/C,"endpoint: median tumor weight (est.), dose: 0.75 mg/kg/injection, schedule: Q01DX009 (ip), vehicle: saline + alcohol, higher = larger tumour",96 % of control
same,T/C,"endpoint: median tumor weight (est.), dose: 1.5 mg/kg/injection, schedule: Q01DX009 (ip), vehicle: saline + Tween-80 + alcohol, higher = larger tumour",49 % of control
same,T/C,"endpoint: median tumor weight (est.), dose: 1.5 mg/kg/injection, schedule: Q01DX009 (ip), vehicle: saline + alcohol, higher = larger tumour",64 % of control
same,T/C,"endpoint: median tumor weight (est.), dose: 3.0 mg/kg/injection, schedule: Q01DX009 (ip), vehicle: saline + Tween-80 + alcohol, higher = larger tumour",2 % of control
same,T/C,"endpoint: median tumor weight (est.), dose: 3.0 mg/kg/injection, schedule: Q01DX009 (ip), vehicle: saline + alcohol, higher = larger tumour",27 % of control
same,T/C,"endpoint: median tumor weight (est.), dose: 6.0 mg/kg/injection, schedule: Q01DX009 (ip), vehicle: saline + alcohol, higher = larger tumour",3 % of control
C[C@]12C=CC(=O)C=C1CC[C@@H]1[C@@H]2C(=O)C[C@@]2(C)[C@H]1CC[C@]2(O)C(=O)CO,T/C,"endpoint: mean tumor weight, dose: 12.5 mg/kg/injection, schedule: Q02DX011 (ip), vehicle: saline, higher = larger tumour",82 % of control
same,T/C,"endpoint: mean tumor weight, dose: 25.0 mg/kg/injection, schedule: Q02DX011 (ip), vehicle: saline, higher = larger tumour",52 % of control
same,T/C,"endpoint: mean tumor weight, dose: 50.0 mg/kg/injection, schedule: Q02DX011 (ip), vehicle: saline, higher = larger tumour",59 % of control
CC1CCC(NC(=O)N(CCF)N=O)CC1 (configuration not stated),T/C,"endpoint: median survival time, dose: 30.0 mg/kg/injection, schedule: Q01DX003 (ip), vehicle: saline with Tween-80, higher = longer survival",157 % of control
same,T/C,"endpoint: median survival time, dose: 50.0 mg/kg/injection, schedule: Q01DX001 (ip), vehicle: saline with Tween-80, higher = longer survival",152 % of control
O=C(O)c1ccc(C(=O)O)c(C(=O)O)c1.[NH-]C1CCCCC1[NH-].[Pt+2],T/C,"endpoint: median survival time, dose: 0.8 mg/kg/injection, schedule: Q01DX009 (ip), vehicle: sodium bicarbonate, higher = longer survival",101 % of control
same,T/C,"endpoint: median survival time, dose: 1.5 mg/kg/injection, schedule: Q01DX009 (ip), vehicle: sodium bicarbonate, higher = longer survival",104 % of control
same,T/C,"endpoint: median survival time, dose: 3.0 mg/kg/injection, schedule: Q01DX009 (ip), vehicle: sodium bicarbonate, higher = longer survival",108 % of control
same,T/C,"endpoint: median survival time, dose: 6.0 mg/kg/injection, schedule: Q01DX009 (ip), vehicle: sodium bicarbonate, higher = longer survival",112 % of control
same,T/C,"endpoint: median survival time, dose: 8.64 mg/kg/injection, schedule: Q04DX005 (ip), vehicle: sodium bicarbonate, higher = longer survival",176 % of control
same,T/C,"endpoint: median survival time, dose: 14.4 mg/kg/injection, schedule: Q04DX005 (ip), vehicle: sodium bicarbonate, higher = longer survival",216 % of control
same,T/C,"endpoint: median tumor weight (est.), dose: 3.11 mg/kg/injection, schedule: Q04DX005 (ip), vehicle: sodium bicarbonate, higher = larger tumour",14 % of control
same,T/C,"endpoint: median tumor weight (est.), dose: 5.18 mg/kg/injection, schedule: Q04DX005 (ip), vehicle: sodium bicarbonate, higher = larger tumour",18 % of control

# From PubChem BioAssay AID288 (DTP/NCI, 2004)
